Patent US20040102622A1, “Modulation of hepatocyte growth factor receptor expression” (Isis Pharmaceuticals Inc., priority 2002, published 2004)

Test system: human hepatocyte growth factor receptor mRNA

Row | Substance | inhibition of human hepatocyte growth factor receptor expression
1 | ISIS 209542: 2′-MOE gapmer, phosphorothioate backbone, sequence cttgcttccactaaaaatga (antisense CTTGCTTCCACTAAAAATGA; all phosphorothioate, sugars by position and methylation of C not given here; 2'-MOE gapmer) | at least 35%
2 | ISIS 209537: 2′-MOE gapmer, phosphorothioate backbone, sequence agaggtttatctgccaaaac (antisense AGAGGTTTATCTGCCAAAAC; all phosphorothioate, sugars by position and methylation of C not given here; 2'-MOE gapmer) | at least 35%
3 | ISIS 155102: 2′-MOE gapmer, phosphorothioate backbone, sequence gagaggcattgactgcagga (antisense GAGAGGCATTGACTGCAGGA; all phosphorothioate, sugars by position and methylation of C not given here; 2'-MOE gapmer) | at least 35%
4 | ISIS 209529: 2′-MOE gapmer, phosphorothioate backbone, sequence cccagccacatatggtcagc (antisense CCCAGCCACATATGGTCAGC; all phosphorothioate, sugars by position and methylation of C not given here; 2'-MOE gapmer) | at least 35%
5 | ISIS 155133: 2′-MOE gapmer, phosphorothioate backbone, sequence aaaccatttctgtagttggg (antisense AAACCATTTCTGTAGTTGGG; all phosphorothioate, sugars by position and methylation of C not given here; 2'-MOE gapmer) | at least 35%
6 | ISIS 209543: 2′-MOE gapmer, phosphorothioate backbone, sequence gatgccaccgtgcactgtgc (antisense GATGCCACCGTGCACTGTGC; all phosphorothioate, sugars by position and methylation of C not given here; 2'-MOE gapmer) | at least 35%
7 | ISIS 155123: 2′-MOE gapmer, phosphorothioate backbone, sequence gcaaagctgtggtaaactct (antisense GCAAAGCTGTGGTAAACTCT; all phosphorothioate, sugars by position and methylation of C not given here; 2'-MOE gapmer) | at least 35%
8 | ISIS 155112: 2′-MOE gapmer, phosphorothioate backbone, sequence taggagtcttctcccttgca (antisense TAGGAGTCTTCTCCCTTGCA; all phosphorothioate, sugars by position and methylation of C not given here; 2'-MOE gapmer) | at least 35%
9 | ISIS 155124: 2′-MOE gapmer, phosphorothioate backbone, sequence tatgatgtctcccagaagga (antisense TATGATGTCTCCCAGAAGGA; all phosphorothioate, sugars by position and methylation of C not given here; 2'-MOE gapmer) | at least 35%
10 | ISIS 209548: 2′-MOE gapmer, phosphorothioate backbone, sequence tcaagaagccctcaatattt (antisense TCAAGAAGCCCTCAATATTT; all phosphorothioate, sugars by position and methylation of C not given here; 2'-MOE gapmer) | at least 35%
11 | ISIS 209540: 2′-MOE gapmer, phosphorothioate backbone, sequence cacatcccttgtaagttgga (antisense CACATCCCTTGTAAGTTGGA; all phosphorothioate, sugars by position and methylation of C not given here; 2'-MOE gapmer) | at least 35%
12 | ISIS 155132: 2′-MOE gapmer, phosphorothioate backbone, sequence gattccctcggtcagaaatt (antisense GATTCCCTCGGTCAGAAATT; all phosphorothioate, sugars by position and methylation of C not given here; 2'-MOE gapmer) | at least 35%
13 | ISIS 155114: 2′-MOE gapmer, phosphorothioate backbone, sequence aattgttgctttcaaaggca (antisense AATTGTTGCTTTCAAAGGCA; all phosphorothioate, sugars by position and methylation of C not given here; 2'-MOE gapmer) | at least 35%
14 | ISIS 209521: 2′-MOE gapmer, phosphorothioate backbone, sequence ggaaccagtggagaagtcag (antisense GGAACCAGTGGAGAAGTCAG; all phosphorothioate, sugars by position and methylation of C not given here; 2'-MOE gapmer) | at least 35%
15 | ISIS 155115: 2′-MOE gapmer, phosphorothioate backbone, sequence agttccttcctgcttcatgc (antisense AGTTCCTTCCTGCTTCATGC; all phosphorothioate, sugars by position and methylation of C not given here; 2'-MOE gapmer) | at least 35%
16 | ISIS 155107: 2′-MOE gapmer, phosphorothioate backbone, sequence tccgcggtgaagttgggaag (antisense TCCGCGGTGAAGTTGGGAAG; all phosphorothioate, sugars by position and methylation of C not given here; 2'-MOE gapmer) | at least 35%
17 | ISIS 209546: 2′-MOE gapmer, phosphorothioate backbone, sequence aattcaagttttggactcca (antisense AATTCAAGTTTTGGACTCCA; all phosphorothioate, sugars by position and methylation of C not given here; 2'-MOE gapmer) | at least 35%
18 | ISIS 155117: 2′-MOE gapmer, phosphorothioate backbone, sequence gtagattgcaggcagacaga (antisense GTAGATTGCAGGCAGACAGA; all phosphorothioate, sugars by position and methylation of C not given here; 2'-MOE gapmer) | at least 35%
19 | ISIS 155120: 2′-MOE gapmer, phosphorothioate backbone, sequence gtgtcctattaaagcagtgc (antisense GTGTCCTATTAAAGCAGTGC; all phosphorothioate, sugars by position and methylation of C not given here; 2'-MOE gapmer) | at least 35%
